{
  "source": "patent US20150094264A1",
  "about": "“USE OF OBESTATIN FOR MUSCLE REGENERATION” (UNIVERSIDADE DE SANTIAGO DE COMPOSTELA, priority 2012, published 2015)",
  "key": {"[1]": {"system": "p38", "assay": "Activation of p38 [pp38(Y138)] by obestatin in L6E9 myoblasts, immunoblot", "format": "cell-based, rat", "description": "FIG. 1. Activation of regulatory enzymes of mitogenesis and myogenesis by obestatin in L6E9 myoblasts and myotubes. Effect of obestatin on activity of regulatory enzymes of the mitogenic capacity (ERK 1/2), metabolic capacity (Akt and AMPK) and myogenic capacity (Akt and p38). Based on a dose-response study, the saturating dose for the maximum enzymatic activation is established for a concentration of 5 nM. […] Inactivation of AMPK is described in both cell models. The activation profile discovers bimodal characteristics for the action of obestatin: 1.—mitogenic activation in myoblasts; and, 2.—myogenic activation. The immunoblots are representative of 6 independent assays.\n(§1) The studies were performed based on the use of L6E9 rat myoblasts which were maintained in growth medium (GM) formed by DMEM (Dulbecco's Modified Eagle Medium) supplemented with 10% fetal bovine serum (FBS), 100 U/mL penicillin, and 100 U/mL streptomycin. For the differentiation, the cells were cultured at 80-100% of confluence in GM and it was replaced for differentiation medium (DM) formed by DMEM supplemented with 2% FBS, 100 U/mL penicillin, and 100 U/mL streptomycin during 6 days.\n(§2) The tissue or cell samples were directly lysed in RIPA buffer [Tris-HCl (pH 7.2), 50 mM; NaCl, 150 mM; EDTA, 1 mM; NP-40, 1% (v/v); Sodium deoxycholate, 0.25% (w/v); protease inhibitors (Sigma); phosphatise inhibitors (Sigma)]. The lysates were clarified by centrifugation (14,000×g during 15 min at 4° C.) and the protein concentration was quantified using QuantiPro™ BCA assay kit (Sigma). For immunoblot, equal amounts of protein were loaded which were fractionated in SOS-PAGE gels and transferred to nitrocellulose membranes. The immunoreactive bands were detected by chemiluminescence (Pierce ECL Western Blotting Substrate; Thermo Scientific, Ill., USA).\nTo define the mitogenic and myogenic effect of obestatin, the activation capacity was studied of intracellular targets regulating proliferation (ERK1/2) and/or differentiation (p38 and Akt). […]"}, "[2]": {"system": "L6E9 cells (rat myoblasts)", "assay": "Expression of myogenic markers myogenin and MHC in L6E9 cells in differentiation medium, immunoblot", "format": "cell-based", "details": "DM, six days", "excerpt": "FIG. 3. Effect of obestatin on the expression of the myogenic markers myogenin and MHC in L6E9 myoblasts. Effect of the stimulation with different doses of obestatin (0.01-100) on the expression of the myogenic markers myogenin and myosin (MHC) 6 days after the induction of the differentiation by the use of differentiation medium (DM: DMEN+2% FBS). The protein expression levels refer to the levels of myoblasts in growth medium (GM: DMEN+10% FBS), non-differentiated. The data are represented as % with respect to the cell expression in GM (mean±standard error of 6 independent experiments). The evaluation of the degree of expression was performed by immunoblot by the use of the ImageJ64 program (*, p<0.05).\nas §1, §2\nThe L6E9 cells were cultured in DM complemented with different concentrations of obestatin in a range of 0.01-100 nM during six days."}, "[3]": {"system": "skeletal muscle tissue (gastrocnemius and soleus) in male rats", "assay": "Chronic administration by osmotic mini-pumps: myogenic markers in gastrocnemius and soleus of rat, immunoblot", "format": "in vivo, Sprague-Dawley rats", "details": "300 nmol/kg body weight/24 h s.c. infusion, 72 h", "description": "FIG. 7. Effect of the chronic administration of obestatin on the myogenic markers in the gastrocnemius and soleus of rat (animal model). Effect of the administration during 72 hours of obestatin (300 nmol/kg/24 h; 72 h) by the implantation of mini-pumps on early and later markers of myogenesis in skeletal muscle tissue (gastrocnemius and soleus) in male rats. A: Western-blot analysis. First column: control; second column: treatment with obestatin. B: Protein levels in gastrocnemius. White column: control; grey column: treatment with obestatin. The protein levels are expressed as % of the control obtained from the group of animals with implantation of mini-pumps with saline (n=10 per group; mean±standard error; *, p<0.05). C: Protein levels in soleus. White column: control; grey column: treatment with obestatin. The protein levels are expressed as % of the control obtained from the group of animals with implantation of mini-pumps with saline (n=10 per group; mean±standard error; *, p<0.05).\nas §2\nTwo animal models were used for the in vivo assays: Sprague-Dawley rats and Swiss mice. The Sprague-Dawley (250 g; n=20) rats were maintained in 12 h light-darkness cycled with free access to standard diet and water. The Alzet® mini-pumps (model 1003D) were subcutaneously implanted. The animals were assigned to one of the two experimental groups (n=10/group): 1) control group (mini-pumps with saline); and, 2) obestatin group (mini-pumps implanted containing 300 nmol/kg weight/24 h). These mini-pumps allow a diffusion flow of 1 microL/h. After 72 h, the rats were sacrificed by cervical dislocation under anaesthetic treatment, and soleus and gastrocnemius tissues were extracted for immunoblot analysis.\nBased on the short mean life of obestatin in plasma, osmotic mini-pumps were used for the in vivo administration of this peptide. Two groups of male rats were worked with: a group of 10 male rats received the continuous subcutaneous infusion of obestatin during 72 h (300 nmol/kg body weight/24 h); and another group of 10 rats received the equivalent volume of PBS during 72 h. The animals were sacrificed and the gastrocnemius and soleus muscles were removed and processed to analyse the expression of key factors of muscular differentiation by immunoblot. […] The increase in both types of muscle of the family of regulatory factors of different stages in myogenesis show a clear muscle regenerative capacity for obestatin."}, "[4]": {"system": "tibialis anterior muscle in mice where the sciatic nerve has been denervated", "assay": "Weight reduction of tibialis anterior after denervation of the sciatic nerve (model of muscular atrophy)", "format": "in vivo, Swiss mice", "details": "300 nmol/kg weight local, 14 days", "description": "FIG. 14. Analysis of the weight reduction of the tibialis anterior muscle in mice where the sciatic nerve has been denervated (model of muscular atrophy) under the exogenous administration of obestatin or vehicle (PBS). Swiss mice were used whereon the sciatic nerve was denervated in one of the limbs, using the other as control. The effect of the administration of obestatin (300 nmol/kg weight) or the vehicle (PBS; control) was assessed in the tibialis anterior muscle after 14 days. The data are expressed as % of weight reduction with respect to the control without denervation (n=5 per group; mean±standard error; *, p<0.005).\nTo study muscular atrophy, the sciatic nerve was denervated using Swiss mice. The denervation of the sciatic nerve was performed under anaesthesia, making an incision in the mid thigh on the lateral face of the rear right limb, separating the muscles and raising the sciatic nerve with surgical forceps. A portion of the nerve was isolated removing a fragment thereof. Finally the incision was closed. These animals were locally administered an injection of obestatin (300 nmol/kg weight) or the corresponding vehicle (PBS; control) in intervals of 24 h during 14 days."}},
  "data": [
    {"substance": "obestatin", "values": [
      {"measurement": "obestatin concentration at which activation of p38 [pp38(Y138)] was observed", "setting": "[1]", "result": 0.1, "unit": "nM"},
      {"measurement": "obestatin concentration at which pp38(Y138) phosphorylation levels reached saturable values", "setting": "[1]; dose-response", "result": 5, "unit": "nM"},
      {"measurement": "time post-stimulation of maximum pp38(Y138) levels", "setting": "[1]; obestatin 5 nM", "result": 10, "unit": "min"},
      {"measurement": "increase of MHC expression in relation to the control cells", "setting": "[2]; 5 nM obestatin", "result": "−1.6"},
      {"measurement": "increase of myogenin expression in relation to the control cells", "setting": "[2]; 5 nM obestatin", "result": "−1.7"},
      {"measurement": "obestatin concentration of maximum effect on myogenin and MHC expression", "setting": "[2]; range 0.01-100 nM", "result": 5, "unit": "nM"},
      {"measurement": "MHC protein levels in relation to control rats", "setting": "[3]; gastrocnemius and soleus", "result": "significantly increased"},
      {"measurement": "Myf5 protein levels in relation to control rats", "setting": "[3]; gastrocnemius and soleus", "result": "significantly increased"},
      {"measurement": "Myf6 protein levels in relation to control rats", "setting": "[3]; gastrocnemius and soleus", "result": "significantly increased"},
      {"measurement": "MyoD protein levels in relation to control rats", "setting": "[3]; gastrocnemius and soleus", "result": "significantly increased"},
      {"measurement": "Pax-7 protein levels in relation to control rats", "setting": "[3]; gastrocnemius and soleus", "result": "significantly increased"},
      {"measurement": "myogenin protein levels in relation to control rats", "setting": "[3]; gastrocnemius and soleus", "result": "significantly increased"},
      {"measurement": "Six-1 protein levels in relation to control rats", "setting": "[3]; gastrocnemius", "result": "no effect at all"},
      {"measurement": "Six-1 protein levels in relation to control rats", "setting": "[3]; soleus", "result": "significant increased"},
      {"measurement": "loss of tibialis anterior muscle mass (weight) in relation to vehicle (PBS) controls", "setting": "[4]", "result": "reduces the loss of muscle mass"}
    ]}
  ]
}
